According to patent US20170202932A1, “METHODS FOR INHIBITING NEURON APOPTOSIS AND NECROSIS” (NEWSOUTH INNOVATIONS PTY LIMITED, priority 2012, published 2017):

Tests used:
[1] = target: T1, recombinant mouse TRPC3b channels (Mus musculus, UniProt Q9QZC1, R524G); experiment: Indo-1 ratiometric Ca2+ imaging of CCh-activated Ca2+ entry, HEK293 cells expressing TRPC3b; assay type: cell-based; conditions: genistein 200 μM pre-incubation, n=5, without genistein 182.7±20.8 nM
T1 construct: Full length mouse TRPC3 transcripts were obtained by PCR; expressed in transfected cells; host or cells: HEK293 cells, stably transfected (pIRES-DsRed2 vector)
T1 sequence (Q9QZC1 75-910 R524G limits assumed): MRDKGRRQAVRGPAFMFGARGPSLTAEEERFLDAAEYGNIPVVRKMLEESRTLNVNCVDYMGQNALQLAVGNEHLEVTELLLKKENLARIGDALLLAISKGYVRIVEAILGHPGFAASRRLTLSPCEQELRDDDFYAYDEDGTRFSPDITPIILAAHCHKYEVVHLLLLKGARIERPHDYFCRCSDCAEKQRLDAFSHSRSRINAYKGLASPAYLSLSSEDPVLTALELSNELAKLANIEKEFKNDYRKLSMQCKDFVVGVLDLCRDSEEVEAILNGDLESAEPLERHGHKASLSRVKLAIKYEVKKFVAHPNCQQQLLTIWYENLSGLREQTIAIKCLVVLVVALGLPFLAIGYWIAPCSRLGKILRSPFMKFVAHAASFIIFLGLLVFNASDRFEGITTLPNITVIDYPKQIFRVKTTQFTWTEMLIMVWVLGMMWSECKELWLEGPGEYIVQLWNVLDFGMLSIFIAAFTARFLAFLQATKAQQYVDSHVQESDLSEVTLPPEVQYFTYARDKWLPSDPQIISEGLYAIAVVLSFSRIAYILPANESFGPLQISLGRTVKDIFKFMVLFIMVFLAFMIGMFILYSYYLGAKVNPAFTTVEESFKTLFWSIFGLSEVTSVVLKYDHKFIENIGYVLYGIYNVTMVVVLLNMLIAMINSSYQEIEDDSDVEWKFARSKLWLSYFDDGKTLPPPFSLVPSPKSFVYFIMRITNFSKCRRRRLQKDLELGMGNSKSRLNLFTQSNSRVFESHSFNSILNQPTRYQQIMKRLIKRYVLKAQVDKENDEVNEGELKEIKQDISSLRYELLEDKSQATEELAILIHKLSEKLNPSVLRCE
Procedure: The TRPC3-mediated Ca^2+ entry through two distinct activation pathways was assessed by microfluorometric Ca^2+ imaging: i) Ca^2+ entry via the M3 receptor-PLCB-DAG pathway endogenous to HEK293 cells, using Indo-1 as a Ca^2+ indicator; and ii) Ca^2+ entry via mGluR1-PLCB-DAG through co-expression of the mGluR1, using Fluo-4 as a Ca^2+ indicator.
Cells were grown in DMEM media on 18 mm circular coverslips coated with poly-D-lysine (25 μg/ml) and collagen (25 μg/ml) at 1:1 ratio. The cells were washed with HPSS. The coverslips were then incubated with HPSS and 0.1% pluronic acid, along with either 1 μM Indo-1AM or Fluo-4AM Ca^2+ indicator (Invitrogen, U.S.A.) for an hour prior to the experiment. The cells were then placed into HPSS with 5 μM GdCl3 to block endogenous Ca^2+ entry (added to all superfusions). The M3 AChR-mediated TRPC3 activation was achieved by bath application of carbachol. The mGluR1-mediated TRPC3 activation was achieved by bath application of DHPG.
For Indo-1 experiments, the cells were mounted on a Nikon TMD inverted microscope fitted with an Indo-1 filter set (Nikon Indo-1 filter cube, 485 nm/DM455 nm/405 nm) and illuminated with a mercury lamp. Cells were excited at 350 nm, with dual emission of the field was detected at 410 nm and 480 nm using two photomultiplier tubes, and the ratioed emission was determined in real-time using in-house software. […]

src tyrosine kinase = src tyrosine kinase (Homo sapiens, UniProt P12931); conditions: cited from earlier work
Sequence of src tyrosine kinase (P12931 whole entry): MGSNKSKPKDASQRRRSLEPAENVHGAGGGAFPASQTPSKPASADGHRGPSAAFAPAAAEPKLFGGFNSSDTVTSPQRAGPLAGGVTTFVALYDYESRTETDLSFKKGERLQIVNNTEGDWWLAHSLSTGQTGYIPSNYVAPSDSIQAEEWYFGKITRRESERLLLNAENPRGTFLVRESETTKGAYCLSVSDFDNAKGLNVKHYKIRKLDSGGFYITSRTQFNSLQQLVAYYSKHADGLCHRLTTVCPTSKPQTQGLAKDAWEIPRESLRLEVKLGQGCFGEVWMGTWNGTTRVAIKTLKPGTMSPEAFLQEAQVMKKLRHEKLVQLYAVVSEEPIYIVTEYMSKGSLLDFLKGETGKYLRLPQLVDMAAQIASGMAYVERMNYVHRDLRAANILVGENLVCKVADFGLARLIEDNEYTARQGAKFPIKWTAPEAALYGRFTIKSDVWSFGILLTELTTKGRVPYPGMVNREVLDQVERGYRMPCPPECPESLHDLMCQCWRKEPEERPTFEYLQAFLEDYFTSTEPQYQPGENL

peak [Ca2+] on return of extracellular Ca2+ (CCh-activated Ca2+ entry) [1]: 86.7 ± 8.7 nM
SMILES: O=c1c(-c2ccc(O)cc2)coc2cc(O)cc(O)c12 [genistein, 4′, 5,7-trihydroxyisoflavone]
src tyrosine kinase-mediated phosphorylation of TRPC3 (src tyrosine kinase): inhibit
